Patent US12171787B2, “Methods and compositions for modulating angiogenesis and vasculogenesis” (SanBio, Inc., priority 2012, dated 2024)

Assays:
HUVECs = experiment: HUVEC tube formation assay; assay type: cell-based, human
Text: A HUVEC tube formation assay was used to test the ability of MSCs and SB623 cells to elaborate factors that stimulate vessel formation. See, for example, E J Smith & C A Staton, “Tubule formation assays,” in Angiogenesis Assays—A Critical Appraisal of Current Techniques, (Staton, Lewis & Bicknell, eds.). John Wiley & Sons, Ltd., West Sussex, UK, pp. 65-87, 2006; and Goodwin (2007) Microvasc. Res. 74:172-183.
HUVECs were passed five times in EBM-2/ECGS medium, then transferred to alpha-MEM/0.5% FBS/2 mM glutamine/pen-strep, at a density of 1×10^5 cells/ml. After 24 hours, HUVECs were harvested using 0.25% trypsin-EDTA, rinsed, and resuspended in α-MEM/2 mM glutamine/pen-strep at a density of 1×10^5 cells/ml. A mixture of 75 ul of HUVECs plus 75 ul of either MSC- or SB623-conditioned medium (Example 1), or 75 ul OptiMEM medium as a negative control, was added to each well of a 96-well plate that had been pre-treated by adding 50 ul of Reduced Growth Factor (RGF)-basement gel (Invitrogen, Carslsbad, CA) per well and incubating the plates at 37° C. for 45 minutes. For this assay, MSCs were obtained from 3 different human donors, and a portion of the MSCs from each donor were converted to SB623 cells.
After 16 hours, the cultures were examined by phase contrast microscopy and photographed. The number of complete tubes (formed by contiguous cells) was quantified by an experimenter blinded to the group. […] Thus, MSCs and SB623 cells secrete factors that promote vasculogenesis.
HUVEC tube formation assays with conditioned medium from MSCs and SB623 cells were conducted as described in Example 4, in the presence and absence of the VEGF2 receptor inhibitor SU5416.
Quantitation of tube formation was conducted, as described in Example 4, for HUVECs exposed to SB623 cell conditioned medium in the presence and absence of SU5416, at 16 and 40 hours after plating.

[1] = tested on: human umbilical vein endothelial cells (HUVECs); experiment: HUVEC survival: fraction of Bcl-2-expressing cells by flow cytometry; assay type: cell-based; conditions: 50 nM SU5416 + SB623 cell-conditioned medium, five days, vs SB623 CM alone
Protocol: (§1) Cerebral ischemia can result in loss of nutrient supply to the affected area. To determine if soluble factors from SB623 cells and MSCs have restorative effects on nutrient-deprived endothelial cells, human umbilical vein endothelial cells (HUVECs) were cultured in medium depleted of serum and growth factors for 24 hours, then exposed to conditioned medium (CM) from MSCs or SB623 cells. Control cultures remained in serum- and growth factor-depleted medium without addition of CM. Viability and proliferative capacity of the HUVECs were then assessed.
For these experiments, human umbilical vein endothelial cells were passed twice, then 7.5×10^5 cells were plated in EBM-2/ECGS medium (Endothelial Basal Medium-2/Endothelial Cell Growth Supplements; Lonza, Walkersville, MD) on T-75 flasks coated with 0.1% gelatin and cultured for 24 hours. […] Effects of CM were then assessed by withdrawing 6 ml of medium from each flask, and replacing it with 6 ml fresh OptiMEM (control), 6 ml MSC conditioned medium, or 6 ml SB623 cell conditioned medium (conditioned media prepared as described in Example 1). […]
Bcl-2 is an anti-apoptotic protein originally identified as being overexpressed in certain B-cell lymphomas. Accordingly, the fraction of cells expressing the Bcl-2 protein was measured in serum/growth factor-starved HUVECs as an indicator of their apoptotic potential. […]

[2] = tested on: human umbilical vein endothelial cells (HUVECs); experiment: HUVEC survival: propidium iodide staining of serum/growth factor-starved HUVECs; assay type: cell-based; conditions: 50 nM SU5416 + SB623 cell-conditioned medium, five days, vs SB623 CM alone
Protocol: as §1
For these experiments, human umbilical vein endothelial cells were passed twice, then 7.5×10^5 cells were plated in EBM-2/ECGS medium (Endothelial Basal Medium-2/Endothelial Cell Growth Supplements; Lonza, Walkersville, MD) on T-75 flasks coated with 0.1% gelatin and cultured for 24 hours. The HUVEC monolayers were rinsed twice with warm PBS and incubated with 12 ml of fresh EBM-2 medium overnight at 37° C., 5% CO2. Effects of CM were then assessed by withdrawing 6 ml of medium from each flask, and replacing it with 6 ml fresh OptiMEM (control), 6 ml MSC conditioned medium, or 6 ml SB623 cell conditioned medium (conditioned media prepared as described in Example 1). […]
To quantify cell death, cells were stained with propidium iodide (PI), since dead cells are permeable to PI. […]

[3] = tested on: human umbilical vein endothelial cells (HUVECs); experiment: HUVEC proliferation: fraction of Ki67-expressing cells by flow cytometry; assay type: cell-based; conditions: 50 nM SU5416 + SB623 cell conditioned medium, five days
Protocol: Ki67 is a protein present in cells exiting from the GO (quiescent) phase of the cell cycle; therefore Ki67 levels can be used as a measure of cell proliferation. The fraction of cells expressing Ki67 protein was measured in HUVECs that had been starved for serum and growth factors, then cultured with conditioned medium from either MSCs or SB623 cells.
For Ki67 measurement, HUVECs were cultured and exposed to CM as described in Example 2. Cells were fixed in 4% paraformaldehyde and permeabilized with 0.1% Triton-X100 for one hour. Following permeabilization, cells were stained for one hour on ice with fluorescein-conjugated anti-KI67 antibody, then samples were washed, acquired, and analyzed on the FL-1 channel of a BD FACSCalibur. Cells exposed to fluorescein-conjugated IgG were used as a negative control. For these assays, 3 different human donor pairs were tested.
The effect of the VEGF receptor inhibitor on stimulation of HUVEC proliferation by SB623 cell factors was also assessed. Assays for expression of Ki67 were conducted as described in Example 3, except that 50 nM SU5416 was added to cultures 30 minutes before addition of conditioned medium, and cells were cultured for five days, instead of seven, before assay.

aortic rings = experiment: Aortic ring assay (vessel outgrowth and branching); assay type: cell-based, Sprague-Dawley rats; conditions: 50 nM SU5416, rat aortic rings, 10 days
Text: Restoration of vasculature after ischemic injury requires that surviving endothelial cells receive signals that prompt their migration and invasion. Such signals may arise from vascular smooth muscle cells, monocytes, and/or macrophages, among others. To test for secretion of factors involved in vessel sprouting and branching, the aortic ring assay was used. See, for example, Nicosia & Ottinetti (1990) Lab. Invest. 63:115-122 and Nicosia (2009) J. Cell. Mol. Med. 13:4113-4136.
For preparation of aortic rings, adult Sprague-Dawley rats were euthanized prior to dissection. After clamping off its two ends, the aorta was removed and placed in ice-cold α-MEM/pen-strep medium prior to removal of the external adipose layer. Adipose-free aorta was rinsed twice with ice-cold EBM-2/pen-strep medium before being sectioned into rings of 1.0 mm thickness. […]
To assess the angiogenic activity of MSC- and SB623-derived factors, phase contrast photographs were taken on Day 10, and results were quantified by an experimenter blinded to the group, by counting vessel outgrowth and branching. Growth of new vessels was quantitated by measuring the number of vessels growing out from the ring; and vessel branching was quantitated by measuring the number of branchpoints present in vessels growing out from the aortic ring. […]

Cc1cc(C)c(/C=C2\C(=O)Nc3ccccc32)[nH]1 [SU5416]
effect on positive effect of SB623 CM on tube formation (quantitation) (HUVECs; 50 nM SU5416, 16 and 40 hours after plating): completely reversed | effect on stimulation of tube formation by VEGF, MSC-CM and SB623-CM (HUVECs; 50 nM SU5416, 16 hours): reduces the stimulation of tube formation | Bcl-2 expression by HUVECs in SB623 conditioned medium plus inhibitor [1]: fewer cells express | propidium iodide uptake by HUVECs in SB623 conditioned medium plus inhibitor [2]: more cells take up PI | effect on enhancement of HUVEC proliferation (Ki67) by SB623 conditioned medium [3]: partially reversed | vessel outgrowth and branching in SB623 cell-conditioned medium plus inhibitor (aortic rings): reduced

VEGF
tube formation by HUVECs (positive control) (HUVECs; 10 ng/ml VEGF, 16 hours): promote tube formation
